US20210393742A1, “LONG-ACTING INTERLEUKIN-15 RECEPTOR AGONIST IN COMBINATION WITH ANOTHER PHARMACOLOGICALLY ACTIVE AGENT” (Nektar Therapeutics, priority 2018, published 2021)

What was measured:
Daudi B cell lymphoma [1] = test: Survival in Daudi B cell lymphoma xenograft model, combination with daratumumab (Example 3); format: in vivo, mice; details: post tumor injection; daratumumab 0.5 mg/kg IP day 14; agonist 0.3 mg/kg SC days 14, 21, 28
Experimental: SCID mice (N=8/group) inoculated intravenously with 1×10^7 Daudi B cell lymphoma cells were treated with a single dose of daratumumab (0.5 mg/kg, IP, 14 days after inoculation) and a total of three doses of mono(methoxyPEG-N-butanamide)40 kD interleukin-15 (0.3 mg/kg, SC, administered 14, 21 and 28 days after tumor inoculation). Also evaluated were untreated mice as a control and mice treated with daratumumab as a single agent therapy. Survival of tumor-inoculated mice was measured by body condition scoring as endpoint marker. Results are provided graphically in FIG. 5.

Daudi B cell lymphoma [2] = test: Daudi cell counts in bone marrow, low and high doses (Example 14); format: in vivo, mice; details: day 24, single agent
Experimental: SCID mice (N=6/group) were intravenously inoculated with 10 million Daudi cells on Day 0 and treated with a single dose of a lower or higher dose of daratumumab (0.05 mg/kg or 5 mg/kg IP, 14 days following Daudi cell inoculation) and two doses of either lower or higher dose mono(methoxyPEG-N-butanamide)interleukin-15 (compound 1) (0.03 mg/kg or 0.6 mg/kg intravenously, one dose at each of 14 and 21 days after inoculation). Mice were also treated with the single agent therapies: daratumumab (0.05 mg/kg or 5 mg/kg IP, 14 days following Daudi cell inoculation) or two doses of mono(methoxyPEG-N-butanamide)40 kD interleukin-15 (compound 1) (0.03 mg/kg or 0.6 mg/kg intravenously, 14 and 21 days after inoculation). Daudi cell numbers in the bone marrow were assessed three days following the second dose of mono(methoxyPEG-N-butanamide)40 kD interleukin-15 (day 24) by flow cytometry as shown in FIGS. 17A and 17B.

NK cells [3] = test: Granzyme B expression per cell in bone marrow NK cells of Daudi lymphoma bearing mice (Example 11); format: in vivo; details: bone marrow day 24; Conjugate 1 0.3 mg/kg; antibody 0.5 mg/kg
Experimental: (§1) Balb/c mice bearing Daudi B cell lymphoma tumors in the bone marrow (n=6/group) were intraperitoneally administered a single 0.5 mg/kg dose of the human CD38 protein targeting clinical antibody daratumumab (DARZALEX®), Janssen Biotech) or a nonspecific control antibody with a matching isotype on day 14 after Daudi cell intravenous inoculation. Additional groups were treated with (i) mono(mPEG-N-butanamide)40 kD interleukin-15 (Conjugate 1) administered subcutaneously at a dose of 0.3 mg/kg as a single agent on days 14 and 21 after Daudi cell inoculation, or (ii) a combination treatment of Conjugate 1 administered subcutaneously at doses of 0.03 mg/kg or 0.3 mg/kg on days 14 and 21 after Daudi cell inoculation and daratumumab administered intraperitoneally at a dose of 0.5 mg/kg on day 14 after Daudi cell inoculation.
(§2) Three days following the second Conjugate 1 administration (day 24 after Daudi inoculation), bone marrow was collected and the NK cell fraction was measured by flow cytometry in total bone marrow.

NK cells [4] = test: CD16 surface expression on bone marrow NK cells of Daudi lymphoma bearing mice (Example 10); format: in vivo; details: bone marrow day 24
Experimental: as §1, with “(DARZALEX®,” for “(DARZALEX®),”
Three days following the second Conjugate 1 administration (day 24 after Daudi inoculation), bone marrow was collected and the NK cell fraction was measured by flow cytometry in total bone marrow. The fraction of NK cells expressing the cell surface CD16 receptor that is known to mediate antibody dependent cellular cytotoxicity mechanism in the presence of tumor targeting antibodies, and the change in CD16 expression per cell basis on NK cells are shown in FIGS. 13A and 13B, respectively.

NK cells [5] = test: NKG2A and NKG2D surface expression on bone marrow NK cells of Daudi lymphoma bearing mice (Example 4); format: in vivo; details: bone marrow day 24; Conjugate 1 0.3 mg/kg SC days 14 and 21; antibody 0.5 mg/kg IP day 14
Experimental: as §1, with “(DARZALEX®,” for “(DARZALEX®),”, “administered mono(methoxyPEG-N-butanamide)40” for “treated with (i) mono(mPEG-N-butanamide)40”, “1)” for “1) administered”, “administered” for “(ii)”
as §2, with “marrow. Expression of the cell surface activating receptor NKG2D and the inhibitory checkpoint receptor NKG2A are shown in FIGS. 7A and 7B, respectively.” for “marrow.”

Daudi B cell lymphoma [6] = test: Survival in Daudi B cell lymphoma xenograft model, combination with rituximab (Example 1); format: in vivo, mice; details: after about 30 days; rituximab 40 mg/kg IP, days 14 and 17
Experimental: At day 0, SCID mice were intravenously injected with 1×10^7 Daudi cells. The mice were divided into four groups. On days 14 and 17 post-Daudi cell injection, the groups were treated by injection as follows: Group 1: isotype control antibody, Group 2: 40 mg/kg IP rituximab, Group 3: 0.3 mg/kg mono(methoxyPEG-N-butanamide)40 kD interleukin-15 (a long-acting IL-15 receptor agonist), Group 4: 40 mg/kg IP rituximab and 0.3 mg/kg SC mono(methoxyPEG-N-butanamide)40 kD interleukin-15 (combination).
The survival rate was determined by measuring the onset of hind limb paralysis as a surrogate parameter.

[7] = system: STAT5 phosphorylation in lymphocytes; test: STAT5 phosphorylation in lymphocytes at time points after administration in mice, flow cytometry; format: in vivo
From the text: Conventional approaches, such as those involving radiolabeling a compound, administering the compound in vivo, and determining its clearance, can be used to assess whether a compound proposed to be a long-acting, IL-15 receptor agonist is “long-acting” (i.e., has a clearance that is longer than that of IL-15 administered in the same in vivo system). For the purposes herein, the long-acting nature of a long-acting IL-15 receptor agonist may be, and is typically determined using flow cytometry to measure STAT5 phosphorylation in lymphocytes at various time points after administration of the agonist to be evaluated in mice. As a reference, the signal is lost by around 24 hours with IL-15, but is sustained for a period greater than that for a long-acting IL-15 agonist.

[8] = system: STAT5 phosphorylation in KHYG-1 cells; test: Phosphorylation of STAT5 in KHYG-1 cells (Example 7); format: cell-based, human; details: 10 minutes
Experimental: KHYG-1 cells were cultured in RPMI-1640 medium supplemented with 20% FBS, 2 mM L-glutamine, and 20 ng/mL IL-2 (Complete growth medium) in a humidified incubator at 37° C. and 5% CO2.
One day prior to treatment with test compounds, cells were seeded at a density of 500,000 viable cells/ml in Complete growth medium and incubated overnight under normal growth conditions. On the day of the assay, KHYG-1 cells were washed 3 times with DPBS, resuspended in assay medium (RPMI-1640 medium supplemented with 20% FBS, 2 mM L-glutamine), and incubated for 4-5 hours at 37° C., 5% CO2. Cells were adjusted to the appropriate density (8×10^5 cells/mL) in assay medium and 50,000 cells/well were aliquoted into wells of a 96-well plate (View-Plate 96, Perkin-Elmer).
KHYG-1 cells were stimulated with IL-15 or a long-acting IL-15 receptor agonist (mono(mPEG-butanamide)IL-15) followed by incubation at 37° C., 5% CO2 for 10 minutes. Treated cells were lysed on ice.
Detection of phospho-STAT5 protein levels in cell lysates was performed using the Phospho(Tyr694)/Total STAT5a,b Assay Whole Cell Lysate kit (MSD product #K15163D). Relative light unit (RLU) signal corresponding to phosphor-STAT5 was collected using a Sector® Imager 2400 plate reader (MSD) with the results provided in FIG. 10A.

CD56+ human NK cells = test: Dose response of human NK cell proliferation in CFSE labeled PBMCs (Example 8); format: cell-based; details: 5 days
Experimental: Human peripheral blood mononuclear cell (PBMCs) labeled with a CFSE preparation were incubated for 5 days in vitro in the presence of increasing doses of rhIL-15 (dose range 1 ng/ml-100 ng/ml, 5 point, 3 fold dilutions) or a long-acting IL-15 receptor agonist (mono(mPEG-butanamide)IL-15) (dose range 10 ng/ml-1000 ng/ml, 5 point, 3 fold dilutions). After the incubation period, cell proliferation as indicated by the decrease of CFSE in the cells that had undergone cell doublings was measured with flow cytometry measuring CFSE levels in CD56+ human NK cells within the PBMCs preparation.

[9] = Conjugate 1 0.3 mg/kg, antibody 0.5 mg/kg

Daratumumab: anti-CD38 monoclonal antibody (DARZALEX®, Janssen Biotech) [reference compound]
median survival (Daudi B cell lymphoma [1]): 28.5 days | intra-bone marrow tumor cells depleted (Daudi B cell lymphoma [2]; high dose (daratumumab 5 mg/kg; compound 1 0.6 mg/kg)): 58% | intra-bone marrow tumor cells depleted (Daudi B cell lymphoma [2]; low dose (daratumumab 0.05 mg/kg; compound 1 0.03 mg/kg)): 30% | Granzyme B mean fluorescence intensity (MFI mean value) (NK cells [3]): 272 | Relative Granzyme B expression compared to untreated condition (NK cells [3]): No increase (0.7x) | Fraction of NK cell expressing cell surface CD16 (mean value) (NK cells [4]; Conjugate 1 0.3 mg/kg SC days 14 and 21, antibody 0.5 mg/kg IP day 14): 81% | CD16 mean fluorescence intensity (MFI mean value) (NK cells [4]; [9]): 448 | Relative CD16 expression compared to untreated condition (NK cells [4]; [9]): No increase (1x) | % NK cells expressing NKG2A (mean, n = 6) (NK cells [5]): 54.83% | % NK cells expressing NKG2D (mean, n = 6) (NK cells [5]): 10.22%

rituximab: anti-CD20 monoclonal antibody (Rituxan®, Genentech) [reference compound]
survival (Daudi B cell lymphoma [6]): 0%

rhIL-15: recombinant human interleukin-15 (SEQ ID NO: 1), unconjugated comparator [reference compound]
time by which the STAT5 phosphorylation signal is lost [7]: around 24 hours | phosphorylation of STAT5 [8]: dose-dependent phosphorylation of STAT5 | EC50 (ng/ml)-% proliferation (CD56+ human NK cells): 2.28 ng/mL | Emax-% proliferation (CD56+ human NK cells): 69.6%
